Laboratory results reported in PubChem BioAssay (NCI).
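Assay format: 96-well plates, 48-hour exposure. The concentration for 50% growth inhibition is given as GI50. TGI: concentration producing complete growth inhibition.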

What was measured:
Test in all cases: DTP human tumour cell line panel, 48 h
NCI/ADR-RES ovarian = test system: NCI/ADR-RES ovarian
RXF 393 renal = test system: RXF 393 renal
NCI-H226 lung = test system: NCI-H226 lung
HOP-62 NSCLC = test system: HOP-62 NSCLC
OVCAR-8 ovarian = test system: OVCAR-8 ovarian
SN12C renal = test system: SN12C renal
HCT-15 colon = test system: HCT-15 colon
HCC-2998 colon = test system: HCC-2998 colon
UACC-257 melanoma = test system: UACC-257 melanoma
SF-295 CNS = test system: SF-295 CNS
NCI-H522 lung = test system: NCI-H522 lung
BT-549 breast = test system: BT-549 breast
SF-539 CNS = test system: SF-539 CNS
MDA-MB-231 breast = test system: MDA-MB-231 breast
K-562 leukemia = test system: K-562 leukemia
SW-620 colon = test system: SW-620 colon
HT29 colon = test system: HT29 colon
MOLT-4 leukemia = test system: MOLT-4 leukemia
LOX IMVI melanoma = test system: LOX IMVI melanoma
SK-OV-3 ovarian = test system: SK-OV-3 ovarian
NCI-H23 lung = test system: NCI-H23 lung
U251 CNS = test system: U251 CNS
T-47D breast = test system: T-47D breast
COLO 205 colon = test system: COLO 205 colon
M14 melanoma = test system: M14 melanoma
SR leukemia = test system: SR leukemia
UO-31 renal = test system: UO-31 renal
RPMI-8226 leukemia = test system: RPMI-8226 leukemia
MALME-3M melanoma = test system: MALME-3M melanoma

NC(CSC(c1ccccc1)(c1ccccc1)c1ccc(Br)cc1)C(=O)O (configuration not stated)
GI50 (NCI/ADR-RES ovarian): 976 nM
TGI (NCI/ADR-RES ovarian): 4540 nM
GI50 (RXF 393 renal): 103 nM
TGI (RXF 393 renal): > 35600 nM
GI50 (NCI-H226 lung): 11300 nM
TGI (NCI-H226 lung): 33400 nM
GI50 (HOP-62 NSCLC): 457 nM
TGI (HOP-62 NSCLC): 21800 nM
GI50 (OVCAR-8 ovarian): 321 nM
TGI (OVCAR-8 ovarian): > 51700 nM
GI50 (SN12C renal): 300 nM
TGI (SN12C renal): 49800 nM
GI50 (HCT-15 colon): 258 nM
TGI (HCT-15 colon): > 82000 nM
GI50 (HCC-2998 colon): 174 nM
TGI (HCC-2998 colon): 1500 nM
GI50 (UACC-257 melanoma): 7440 nM
TGI (UACC-257 melanoma): > 72800 nM
GI50 (SF-295 CNS): 76.4 nM
TGI (SF-295 CNS): > 100000 nM
GI50 (NCI-H522 lung): 120 nM
TGI (NCI-H522 lung): 22300 nM
GI50 (BT-549 breast): 971 nM
TGI (BT-549 breast): > 57000 nM
GI50 (SF-539 CNS): 110 nM
TGI (SF-539 CNS): 13500 nM
GI50 (MDA-MB-231 breast): 133 nM
TGI (MDA-MB-231 breast): 3920 nM
GI50 (K-562 leukemia): 311 nM
TGI (K-562 leukemia): 20600 nM
GI50 (SW-620 colon): 100 nM
TGI (SW-620 colon): 27700 nM
GI50 (HT29 colon): 399 nM
TGI (HT29 colon): > 54900 nM
GI50 (MOLT-4 leukemia): 651 nM
TGI (MOLT-4 leukemia): > 82100 nM
GI50 (LOX IMVI melanoma): 659 nM
TGI (LOX IMVI melanoma): 19800 nM
GI50 (SK-OV-3 ovarian): 162 nM
TGI (SK-OV-3 ovarian): > 72700 nM
GI50 (NCI-H23 lung): 438 nM
TGI (NCI-H23 lung): 66700 nM
GI50 (U251 CNS): 79.8 nM
TGI (U251 CNS): 25500 nM
GI50 (T-47D breast): 345 nM
TGI (T-47D breast): > 100000 nM
GI50 (COLO 205 colon): 241 nM
TGI (COLO 205 colon): 15200 nM
GI50 (M14 melanoma): 31.8 nM
TGI (M14 melanoma): 146 nM
GI50 (SR leukemia): 1330 nM
TGI (SR leukemia): > 38700 nM
GI50 (UO-31 renal): 12300 nM
TGI (UO-31 renal): > 100000 nM
GI50 (RPMI-8226 leukemia): 93 nM
TGI (RPMI-8226 leukemia): 22600 nM
TGI (MALME-3M melanoma): > 88600 nM
